{"source": "paper PMC12123601", "about": "“Light-Induced, Lysine-Targeting Irreversible Covalent Inhibition of the Human Oxygen Sensing Hydroxylase Factor Inhibiting HIF (FIH)” (Journal of the American Chemical Society, 2025)", "target": "FIH (Homo sapiens, UniProt Q9NWT6)", "sequence (Q9NWT6 whole entry)": "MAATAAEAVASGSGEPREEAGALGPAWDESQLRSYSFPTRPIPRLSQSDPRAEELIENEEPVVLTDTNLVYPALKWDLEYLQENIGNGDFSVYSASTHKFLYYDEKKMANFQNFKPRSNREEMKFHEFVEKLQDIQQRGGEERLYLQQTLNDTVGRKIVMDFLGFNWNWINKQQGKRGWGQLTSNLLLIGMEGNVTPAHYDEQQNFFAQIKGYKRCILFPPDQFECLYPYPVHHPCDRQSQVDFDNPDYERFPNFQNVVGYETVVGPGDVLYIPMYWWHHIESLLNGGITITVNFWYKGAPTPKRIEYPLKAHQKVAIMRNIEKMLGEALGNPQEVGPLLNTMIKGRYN", "assay": "Time-dependent cellular thermal shift assay (CETSA) in Hep3B cells, FIH", "assay_type": "cell-based", "design": "endogenous in cells; host or cells: Hep3B (SCSP-5045)", "settings": "for ΔTm at 50 µM: Hep3B", "protocol": "To investigate potential cellular target engagement of NBA-ZG-2291 with FIH, we performed a time-dependent cellular thermal shift assay (CETSA) using Hep3B cells. The results imply that, after 30 min of light activation (365 nm, 16 W), NBA-ZG-2291 effectively stabilizes FIH with a ΔT m of about 9 °C after incubation for 12–48 h (Figure A), indicating sustained engagement with FIH. […] We also performed Western blotting to examine the protein levels of both HIF-1α and HIF-2α in control and NBA-ZG-2291-treated Hep3B cells.\n5 NBA-ZG-2991 sustainably engages with FIH and regulates the expression of FIH-dependent HIF target gene EGLN3 in Hep3B cells. (A) The CETSA assay was carried out with Hep3B cells grown in the presence of NBA-ZG-2291 (50 μM) for 12–48 h after 30 min of light activation (365 nm, 16 W). The intensity of the bands for grayscale analysis was referenced to the starting temperature (37 °C). α-Actinin was the sample loading control. n = 2; mean ± SD. […] (E) Correlation heatmap of the NBA-ZG-2291-treated group and the siFIH group by RNA-sequencing analysis. […] The relative fold change with respect to DMSO treated sample is shown (with normalization to HPRT gene levels). Mean ± SEM; n = 3. (G) TG level of NBA-ZG-2291-treated 3T3-L1-derived adipocytes. Mean ± SEM; n = 3. (H) Representative Oil Red O-stained images of the control, ZG-2291-treated, and NBA-ZG-2291-treated 3T3-L1-derived adipocytes. Scale Bar, 30 μm. P values were analyzed by two-way ANOVA comparing with the vehicle/control group (*, P < 0.05; **, P < 0.01; ***, P < 0.001, ****, P < 0.0001). See Methods (Quantitative PCR Analysis of Gene Expression) for assay details. […]\nData acquisition was carried out in Full MS mode, positive ion detection, the acquisition time was 10 min, and the scanning range of the mass-to-charge ratio was 400-2000 m/z.\n3.5 Dihedral angle scan analysis\nDihedral angle scans were performed using the Gaussion 16 suite11. The original dihedral angles of the isoxazol-5-yl pyridine fragment were set to 0° via Gaussian View 6.0.16 for dihedral scanning from 0° to 360° in 1° increments at the B3LPY-D3(BJ)/6-31+G(d) level of theory. The resulting 360 conformations and the single-point energy for each conformation were extracted.\n3.6 Molecular dynamics (MD) simulations\nThe process of customizing non-standard residues (NBA-ZG-2291 modified Lys106) in the amber14sb force field involved the following steps: First, the molecular structure of NBA-ZG-2291 was obtained and its topology was generated. […]\nThe RESP charges were fitted using Multiwfn, wherein the optimized structure and ESP data were inputted to perform the restrained electrostatic potential fitting. The obtained RESP charges were subsequently incorporated into the gaff topology generated by Multwfn. […]", "data": [{"smiles": "O=C(O)CNC(=O)c1ncc(-c2cc(-c3ccc(CO)c([N+](=O)[O-])c3)no2)cc1O", "note": "[NBA-ZG-2291]", "values": [{"measurement": "ΔTm at 50 µM", "setting": "incubation 12 h after 30 min light activation (365 nm, 16 W)", "result": 8.87, "unit": "°C"}, {"measurement": "ΔTm at 50 µM", "setting": "incubation 24 h after 30 min light activation (365 nm, 16 W)", "result": 9.28, "unit": "°C"}, {"measurement": "ΔTm at 50 µM", "setting": "incubation 48 h after 30 min light activation (365 nm, 16 W)", "result": 8.86, "unit": "°C"}, {"measurement": "FIH: ΔTm", "setting": "incubation for 12–48 h after 30 min light activation (365 nm, 16 W)", "result": "about 9 °C"}]}]}
